Results published in patent publication US20140255432A1, “SILVESTROL, SILVESTROL ANALOGS AND USES THEREOF” (priority 2011, published 2014).

Key:
LMP-1 = assay: Immunoblot of LMP-1 in LCL; type: cell-based, Epstein-Barr virus
Procedure: Cells were harvested and lysed as described (Alinari 2011). Following collection of whole cell lysates, equal amounts of protein were resolved by SDS-PAGE and transferred onto a PVDF membrane (Millipore, Billerica, Mass.). Membrane was probed overnight at 4° C. with β-actin, pSTAT1, pSTAT3, STAT1, STAT3, pAkt, Akt (Cell Signaling Technology, Danvers, Mass.), or LMP-1 (DakoCytomation, Carpinteria, Calif.). After incubation with HRP-conjugated secondary antibody (Cell Signaling Technology), protein was detected with SuperSignal West Pico Chemiluminescent Substrate (Pierce, Rockford, Ill.).
Whole cell protein levels of LMP-1 was evaluated by immunoblot 72 hr after treating with a single dose (10 nM) of silvestrol in seven LCL lines (FIG. 3A). β-actin was included as a loading control. In FIG. 3B, LCL were incubated 24, 72, and 120 hr in the presence of 10 nM silvestrol or vehicle control. Whole cell lysates were immunoblotted for LMP-1. Results are representative of 3 LCL lines. […] Decreases in other latent gene products involved with EBV-driven B cell transformation were observed as well. In FIG. 3D, LCL were incubated as in FIG. 3B and immunoblotted for STAT1, STAT3, AKT and NF-κB p65.

lymphoma cell lines = assay: IC50 against lymphoma cell lines; type: cell-based; conditions: Homo sapiens
From the text: These include EBV^+ lymphoblastoid cell lines (LCL) derived from SCID mice engrafted with peripheral blood mononuclear cells (hu-PBL-SCID) from EBV-positive donors. (FIG. 1). This hu-PBL-SCID model is a spontaneous, preclinical model of EBV-driven lymphomagenesis that can be utilized to study the anti-tumor and immune surveillance activity of EBV-specific memory T cells. In vitro, the anti-proliferative effect of silvestrol against EBV+ LCLs (FIG. 2) is preceded by a loss of EBV latent membrane protein 1 (LMP1). In FIG. 2A, relative proliferation was determined. MTS assays were performed on three donors treated with silvestrol (2, 5, or 10 nM) or DMSO (control). The assays were performed on days 1, 3, and 5. In FIG. 2B, relative growth was determined. Viability assays were performed on cells from three donors treated with silvestrol (2, 5, or 10 nM) or DMSO (control). The assays were performed on days 1, 3, and 5. Viability was assessed by annexin/propidium iodide flow cytometry.

IFNgamma = IFNgamma release / production of immune effector cells; type: cell-based, human
Procedure: CoCx were incubated in the presence of 10 U/ml IL-2 and given a single dose of 0 (vehicle only), 2, 5, or 10 nM silvestrol. At day 14 cells were (A) stimulated non-specifically by addition of 12-O-tetradecanoylphorbol-13-acetate (TPA) and ionomycin (INO) to assay for the ability to release interferon gamma (IFNγ) or (B) by the addition of equal numbers autologous LCL to measure cell mediated response to antigen-induced IFNγ production. IFNγ production was measured by […] flow following four hour stimulation.
FIG. 41 presents data regarding NK cytotoxicity of K562 cells. […] FIG. 42 presents data regarding the cytotoxicity of LCLs pretreated with BZLF 1. […] BZLF1 antigen pulsed LCLs promoted enhanced killing in untreated and silvestrol-treated CTLs. FIG. 43 presents data relating to CD4 IFNgamma release with LCL pretreated with BZLF1. […] FIG. 44 presents data relating to CD4 IFNgamma release with LCL pretreated with BZLF 1. […] FIG. 45 presents data relating to interleukin-6 induction by silvestrol. […] FIG. 46 presents data relating to a change in LMP-1 expression following silvestrol treatment. […] Three cell lines were examined on days 1, 3, and 5 following treatment. FIG. 47 presents data relating to a change in EBNA1 expression following silvestrol treatment. Three cell lines were examined on days 1, 3, and 5 following treatment.

COC(=O)[C@H]1[C@@H](O)[C@@]2(O)c3c(OC)cc(O[C@@H]4O[C@@H]([C@H](O)CO)CO[C@H]4OC)cc3O[C@@]2(c2ccc(OC)cc2)[C@@H]1c1ccccc1 [silvestrol]
LMP1 protein levels (LMP-1; 10 nM, 5 days, cells from seven donors (FIG. 3A)): reduced LMP1 protein levels
LMP-1 levels over time (LMP-1; single 10 nM dose, 24, 72, 120 hr (FIG. 3B)): fall incrementally as a function of time
IC50 (lymphoma cell lines): < 10 nM
IFNgamma release of CD4+ T cells (IFNgamma; 10 nM, LCL pretreated with BZLF1 (FIG. 43)): not adversely affected
IFN production of immune effector subsets against irradiated autologous EBV+ LCL (DC9) (IFNgamma; low concentrations (2-10 nM) (FIG. 18)): not abrogated
